Measurements taken from US10174016B2 (BAYER AKTIENGESELLSCHAFT, priority 2014, dated 2019).

Assays:
human P2X3 receptor = human P2X3 receptor (Homo sapiens (Human), UniProt P56373); assay: Intracellular calcium measurement (FLIPR, Fluo-4) of antagonist activity at human P2X3 receptors; format: cell-based; details: human P2X3, FLIPR calcium assay, agonist α,β-Me-ATP; read-out: hP2X3 IC50
Method in brief: (§1)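 Antagonism quantified from peak calcium fluorescence (Fluo-4, FLIPR, 90 sec read) evoked by EC80 α,β-Me-ATP, after a 30 min, 37° C. compound pretreatment in 1% DMSO. Human P2X3- or P2X2/3-expressing cells used; triplicate means fitted for IC50, percent maximal inhibition and Hill coefficient.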

human P2X2/3 receptor = human P2X2/3 receptor (Homo sapiens (Human), UniProt P56373+Q9UBL9); assay: Intracellular calcium measurement (FLIPR, Fluo-4) of antagonist activity at human P2X2/3 receptors; format: cell-based; details: human P2X2/3, FLIPR calcium assay, agonist α,β-Me-ATP; read-out: hP2X2/3 IC50
Method in brief: as §1

Chain of human P2X3 receptor (P56373 whole entry): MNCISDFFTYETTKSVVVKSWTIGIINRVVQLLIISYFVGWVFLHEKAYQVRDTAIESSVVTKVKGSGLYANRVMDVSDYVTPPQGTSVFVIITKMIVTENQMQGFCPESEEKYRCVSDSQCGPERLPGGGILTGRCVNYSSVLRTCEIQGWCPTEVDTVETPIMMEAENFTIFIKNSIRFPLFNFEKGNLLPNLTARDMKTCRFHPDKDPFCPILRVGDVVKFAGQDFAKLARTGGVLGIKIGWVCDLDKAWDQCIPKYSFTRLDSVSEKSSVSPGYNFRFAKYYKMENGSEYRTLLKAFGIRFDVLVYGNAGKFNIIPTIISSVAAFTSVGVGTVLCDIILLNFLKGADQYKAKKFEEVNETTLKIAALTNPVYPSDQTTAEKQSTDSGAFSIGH
Chain of human P2X2/3 receptor (P56373 whole entry): as above
Chain of human P2X2/3 receptor (Q9UBL9 whole entry): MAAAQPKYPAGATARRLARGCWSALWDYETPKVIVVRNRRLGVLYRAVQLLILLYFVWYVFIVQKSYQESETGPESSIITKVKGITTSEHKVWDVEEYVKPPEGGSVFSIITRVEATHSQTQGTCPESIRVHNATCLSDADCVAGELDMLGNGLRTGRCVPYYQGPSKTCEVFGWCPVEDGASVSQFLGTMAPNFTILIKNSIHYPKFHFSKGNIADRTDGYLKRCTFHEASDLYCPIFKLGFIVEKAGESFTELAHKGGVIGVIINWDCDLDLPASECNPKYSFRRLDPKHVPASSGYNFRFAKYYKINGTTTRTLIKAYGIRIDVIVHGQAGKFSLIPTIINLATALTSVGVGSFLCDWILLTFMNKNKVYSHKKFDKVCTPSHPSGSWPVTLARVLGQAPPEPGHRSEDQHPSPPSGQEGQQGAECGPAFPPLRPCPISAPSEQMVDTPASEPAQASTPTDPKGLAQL

IC50 (human P2X3 receptor) [nM] | IC50 (human P2X2/3 receptor) [nM] | Structure (SMILES)
41 | 1010 | Cc1cnc(-c2cc(OC[C@@H]3CN(C)CCO3)cc(C(=O)N[C@H](C)c3ccc(C(F)(F)F)nc3)c2)s1 [Example 370, 3-{[(2S)-4-methylmorpholin 2-yl]methoxy}-5-(5-methyl-1,3-thiazol-2-yl)-N-{(1R)-1-[6-(trifluoromethyl)pyridin-3-yl]ethyl}benzamide]
34 | 532 | Cc1ncc([C@@H](C)NC(=O)c2cc(OCC3CCOCC3)cc(-c3ncc(C(C)C)s3)c2)cn1 [Example 126, N-[(1R)-1-(2-Methylpyrimidin-5-yl)ethyl]-3-[5-(propan-2-yl)-1,3-thiazol-2-yl]-5-(tetrahydro-2H-pyran-4-ylmethoxy)benzamide]
16 | 1850 | Cc1cnc(-c2cc(OC3CCNCC3)cc(C(=O)N[C@H](C)c3ccc(C(F)(F)F)nn3)c2)s1 [Example 201, 3-(5-methyl-1,3-thiazol-2-yl)-5-(piperidin-4-yloxy)-N-{(1R)-1-[6-(trifluoromethyl)pyridazin-3-yl]ethyl}benzamide]
3 | 34 | Cc1cnc(-c2cc(OC3CCOCC3)cc(C(=O)NC(C)c3ncc(Cl)cc3F)c2)s1 (stereo not shown) [Example 81, N-[1-(5-Chloro-3-fluoropyridin-2-yl)ethyl]-3-(5-methyl-1,3-thiazol-2-yl)-5-(tetrahydro-2H-pyran-4-yloxy)benzamide]
132 | 987 | CC[C@@H](NC(=O)c1cc(O[C@@H]2CCOC2)cc(-c2ncc(C)s2)c1)c1cnc(C(F)(F)F)nc1 [Example 22, 3-(5-Methyl-1,3-thiazol-2-yl)-5-[(3R)-tetrahydrofuran-3-yloxy]-N-{(1R)-1-[2-(trifluoromethyl)pyrimidin-5-yl]propyl}benzamide]
60 | 3750 | Cc1cnc(-c2cc(OC[C@@H]3CCCN3C)cc(C(=O)N[C@H](C)c3cnc(C(F)(F)F)nc3)c2)s1 [Example 378, 3-{[(2S)-1-methylpyrrolidin-2-yl]methoxy}-5-(5-methyl-1,3-thiazol-2-yl)-N-{(1R)-1-[2-(trifluoromethyl)pyrimidin-5-yl]ethyl}benzamide]
18 | 1350 | Cc1cnc(-c2cc(OC[C@H]3COCCN3C)cc(C(=O)N[C@H](C)c3ccc(C(F)(F)F)nn3)c2)s1 [Example 388, 3-{[(3R)-4-methylmorpholin-3-yl]methoxy}-5-(5-methyl-1,3-thiazol-2-yl)-N-{(1R)-1-[6-(trifluoromethyl)pyridazin-3-yl]ethyl}benzamide]
32 | 2880 | Cc1cnc(-c2cc(OCC3CCN(C)CC3)cc(C(=O)N[C@H](C)c3cnc(C(F)(F)F)nc3)c2)s1 [Example 380, 3-[(1-methylpiperidin-4-yl)methoxy]-5-(5-methyl-1,3-thiazol-2-yl)-N-{(1R)-1-[2-(trifluoromethyl)pyrimidin-5-yl]ethyl}benzamide]
14 | 1160 | Cc1cnc(-c2cc(OC[C@@H]3CNCCO3)cc(C(=O)N[C@H](C)c3cnc(C(F)(F)F)nc3)c2)s1 [Example 350, 3-(5-Methyl-1,3-thiazol-2-yl)-5-[(2S)-morpholin-2-ylmethoxy]-N-{(1R)-1-[2-(trifluoromethyl)pyrimidin-5-yl]ethyl}benzamide]
15 | 187 | COC(C)(C)COc1cc(C(=O)N[C@H](C)c2ccc(Cl)cn2)cc(-c2ncc(Cl)s2)c1 [Example 115, N-[(1R)-1-(5-Chloropyridin-2-yl)ethyl]-3-(5-chloro-1,3-thiazol-2-yl)-5-(2-methoxy-2-methylpropoxy)benzamide]
14 | 306 | C#CCOc1cc(C(=O)N[C@H](C)c2cnc(C(F)(F)F)nc2)cc(-c2ncc(C)s2)c1 [Example 36, 3-(5-Methyl-1,3-thiazol-2-yl)-5-(prop-2-yn-1-yloxy)-N-{(1R)-1-[2-(trifluoromethyl)pyrimidin-5-yl]ethyl}benzamide]
14 | 428 | Cc1ccc([C@@H](C)NC(=O)c2cc(OC[C@H]3CCCO3)cc(-c3ncc(C)s3)c2)nn1 [Example 61, N-[(1R)-1-(6-methylpyridazin-3-yl)ethyl]-3-(5-methyl-1,3-thiazol-2-yl)-5-[(2R)-tetrahydrofuran-2-ylmethoxy]benzamide]
33 | 1300 | Cc1cnc(-c2cc(OC3CCN(C(C)C)CC3)cc(C(=O)N[C@H](C)c3cnc(C(F)(F)F)nc3)c2)s1 [Example 140, 3-(5-Methyl-1,3-thiazol-2-yl)-5-{[1-(propan-2-yl)piperidin-4-yl]oxy}-N-{(1R)-1-[2-(trifluoromethyl)pyrimidin-5-yl]ethyl}benzamide]
81 | 1920 | Cc1cnc(-c2cc(O[C@H]3C[C@H](N(C)C)C3)cc(C(=O)N[C@H](C)c3cnc(C(F)(F)F)nc3)c2)s1 [Example 165, 3-{[trans-3-(dimethylamino)cyclobutyl]oxy}-5-(5-methyl-1,3-thiazol-2-yl)-N-{(1R)-1-[2-(trifluoromethyl)pyrimidin-5-yl]ethyl}benzamide]
16 | 943 | Cc1cnc(-c2cc(OCC3CC(F)CN3C)cc(C(=O)N[C@H](C)c3cnc(C(F)(F)F)nc3)c2)s1 (stereo partly drawn) [Example 364, 3-{[4-fluoro-1-methylpyrrolidin-2-yl]methoxy}-5-(5-methyl-1,3-thiazol-2-yl)-N-{(1R)-1-[2-(trifluoromethyl)pyrimidin-5-yl]ethyl}benzamide]
3 | 54 | Cc1cnc(-c2cc(OC[C@H]3CCOC3)cc(C(=O)NC(C)c3ncc(Cl)cc3F)c2)s1 (stereo partly drawn) [Example 65, N-[1-(5-Chloro-3-fluoropyridin-2-yl)ethyl]-3-(5-methyL-1,3-thiazol-2-yl)-5-[(3S)-tetrahydrofuran-3-ylmethoxy]benzamide]
42 | 464 | Cc1cnc([C@@H](C)NC(=O)c2cc(OC3CCN(CC(F)F)CC3)cc(-c3ncc(C)s3)c2)cn1 [Example 306, 3-{[1-(2,2-difluoroethyl)piperidin-4-yl]oxy}-N-[(1R)-1-(5-methylpyrazin-2-yl)ethyl]-5-(5-methyl-1,3-thiazol-2-yl)benzamide]
5 | 81 | Cc1cnc(-c2cc(OCC3(N(C)C)CC3)cc(C(=O)N[C@H](C)c3cnc(C(F)(F)F)nc3)c2)s1 [Example 213, 3-{[1-(dimethylamino)cyclopropyl]methoxy}-5-(5-methyl-1,3-thiazol-2-yl)-N-{(1R)-1-[2-(trifluoromethyl)pyrimidin-5-yl]ethyl} benzamide]
10 | 91 | CCc1cnc(-c2cc(OC3CCOCC3)cc(C(=O)N[C@H](C)c3ccc(C)nn3)c2)s1 [Example 128, 3-(5-Ethyl-1,3-thiazol-2-yl)-N-[(1R)-1-(6-methylpyridazin-3-yl)ethyl]-5-(tetrahydro-2H-pyran-4-yloxy)benzamide]

Structure (SMILES) | IC50 (human P2X3 receptor) [nM] | IC50 (human P2X2/3 receptor) [nM]
Cc1cnc(-c2cc(OC[C@H]3CN(C)CCO3)cc(C(=O)N[C@H](C)c3ccc(C(F)(F)F)nn3)c2)s1 [Example 373, 3-{[(2R)-4-methylmorpholin-2-yl]methoxy}-5-(5-methyl-1,3-thiazol-2-yl)-N-{(1R)-1-[6-(trifluoromethyl)pyridazin-3-yl]ethyl}benzamide] | 21 | 2830
